{"source": "paper PMC7828111", "about": "“In Search for Multi-Target Ligands as Potential Agents for Diabetes Mellitus and Its Complications—A Structure-Activity Relationship Study on Inhibitors of Aldose Reductase and Protein Tyrosine Phosphatase 1B” (Molecules, 2021)", "key": {"HepG2 cells": {"tested_on": "HepG2 cells", "experiment": "Cell viability, MTT assay, HepG2", "type": "cell-based, human", "details": "HepG2, 48 h, up to 50 μM", "experimental": "(§1) Human liver cells (HepG2) and murine myoblasts (C2C12) were purchased by Sigma-Aldrich, which obtained them from the European Collection of Authenticated Cell Cultures (ECACC). HepG2 and C2C12 cells were grown in Dulbecco’s Modified Eagle’s medium (DMEM) supplemented with 10% foetal bovine serum (FBS), 2 mM glutamine, 100 IU/mL penicillin, 100 μg/mL streptomycin (Sigma-Aldrich, St. Louis, MO, USA), in a humidified atmosphere and with 5% CO2 at 37 °C. Differentiation of C2C12 was induced incubating murine myoblasts in DMEM supplemented with 2% horse serum. C2C12 cells were plated and grown until they reach 70% confluence. Then, cells were incubated in the presence of 2% horse serum for 96 h. Every 48 h, the medium was replaced with fresh medium. After 96 h, the degree of differentiation was evaluated analysing cells with a contrast phase microscope.\n(§2) HepG2 and C2C12 cells were incubated in the presence of increasing concentrations of compounds 4e and 4f for 48 h at 37 °C. After this time, cells were washed with PBS and then incubated for 1 h with 0.5 mg/mL of MTT dissolved in complete medium. Then cells were washed and lysed with 300 μL of DMSO. The absorbance of solutions were evaluated using a microplate readers at 595 nm. All data were normalized respect to control experiment."}, "C2C12 cells": {"tested_on": "C2C12 cells", "experiment": "Cell viability, MTT assay, C2C12", "type": "cell-based, murine", "details": "C2C12, 48 h", "experimental": "as §1, §2"}, "[1]": {"tested_on": "insulin receptor (IRβ) phosphorylation in HepG2 cells", "experiment": "Insulin receptor phosphorylation in HepG2 cells (western blot)", "type": "cell-based, human", "experimental": "The insulin mimetic/sensitizing activity of compound 4f was evaluated on both HepG2 and C2C12 cells. Starved HepG2 and C2C12 cells were incubated in the presence of compound 4f (25 μM) for 90 min and after stimulated or not with insulin (10 nM). Then, cells extracts were analysed to evaluate phosphorylation levels of the insulin receptor.\nHepG2 and differentiated C2C12 cells were starved for 24 h and then incubated in the presence of compound 4f (25 μM, final concentration) for 90 min. After this time, cells were washed with PBS and then stimulated or not with 10 nM insulin for 30 min. Then, cells were lysed and cellular proteins separated on a 12% SDS-PAGE. After electrophoresis, cellular proteins were transferred on a PVDF membrane by western blot technique and then probed against antibodies able to specifically recognize insulin receptor (I2033 Sigma Aldrich) or phosphorylated form of IR (MABS65, Sigma-Aldrich). Sample loading was evaluated probing PVDF membrane with anti-actin antibodies (ABT1485 Sigma Aldrich)."}, "human recombinant PTP1B [2]": {"biological_target": "T1, human recombinant PTP1B (Homo sapiens, UniProt P18031)", "T1 sequence (P18031 1-435)": "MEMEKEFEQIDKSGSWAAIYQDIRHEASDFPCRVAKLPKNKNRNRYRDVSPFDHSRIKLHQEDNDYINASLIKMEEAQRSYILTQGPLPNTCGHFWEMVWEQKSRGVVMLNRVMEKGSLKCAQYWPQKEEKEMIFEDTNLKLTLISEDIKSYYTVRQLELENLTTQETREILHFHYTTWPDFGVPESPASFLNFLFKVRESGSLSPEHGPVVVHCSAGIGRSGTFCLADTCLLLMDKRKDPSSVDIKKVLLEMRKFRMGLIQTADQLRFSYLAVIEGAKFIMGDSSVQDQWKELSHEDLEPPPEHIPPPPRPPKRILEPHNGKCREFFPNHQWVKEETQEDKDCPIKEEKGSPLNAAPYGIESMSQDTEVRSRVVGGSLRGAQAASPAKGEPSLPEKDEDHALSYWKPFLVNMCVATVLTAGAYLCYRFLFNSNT", "experiment": "Inhibition of human recombinant PTP1B, p-nitrophenyl phosphate as substrate", "type": "biochemical", "details": "human recombinant PTP1B, pNPP as substrate; mean ± S.E.M", "experimental": "PTP1B activity was determined as follow. […] After an appropriate interval time, the reaction was stopped diluting assay solution with 2 mL of KOH 0.1 M. The amount of p-nitrophenol released was determined measuring the absorbance of the solution at 400 nm using a spectrophotometer and a 1-cm optical pathlength (εmM of p-nitrophenol is 18). The IC50 value was determined measuring the pNPP hydrolysis rate in the presence of increasing inhibitor concentration. For each inhibitor, 15–16 different concentrations were used. All tests were carried out in triplicate and data obtained were normalized respect to control sample."}, "human recombinant PTP1B [3]": {"biological_target": "T1, human recombinant PTP1B", "experiment": "Reversibility assay (dilution test) with PTP1B", "type": "biochemical", "details": "saturating inhibitor, 60 min 37 °C, diluted 400 folds", "experimental": "An aliquot of the enzyme was incubated for 60 min at 37 °C in the presence of saturating amount of PTP1B inhibitor. After this time, an aliquot of the enzyme was withdrawn and diluted 400 folds in the assay buffer containing 2.5 mM of pNPP. After 15 min, the reaction was stopped by adding 1 mL of KOH 0.2 M. The amount of pNP released was calculating measuring the absorbance at 400 nm of solutions using a spectrophotometer. Data obtained were normalized respect to control tests, which was carried out diluting the enzyme with DMSO, the solvent used to dissolve all compounds. Data reported in the figure represent the mean value +/− S.E.M. (n = 3)."}}, "data": [{"smiles": "O=C(O)CCN1C(=O)/C(=C/c2ccc(OCCc3ccccc3)cc2)SC1=S", "note": "[4f, 3-[(5Z)-4-Oxo-{5-[4-(2-phenylethoxy)phenyl]methylidene}-2-thioxothiazolidin-3-yl]propanoic acid]", "values": [{"measurement": "Cytotoxicity (cell viability, MTT)", "setting": "HepG2 cells", "result": "well tolerated"}, {"measurement": "Concentration at which a reduction of cell viability was observed", "setting": "C2C12 cells; highest concentration tested", "result": 50, "unit": "µM"}, {"measurement": "Cytotoxicity (cell viability, MTT)", "setting": "C2C12 cells; up to 50 μM", "result": "well tolerated"}, {"measurement": "Increase of IRβ phosphorylation level after stimulation with insulin", "setting": "[1]; HepG2, 25 μM for 90 min, then 10 nM insulin 30 min, control cells 39%", "result": 260, "unit": "%"}, {"measurement": "Effect on basal phosphorylation levels of IRβ", "setting": "[1]; HepG2, 25 μM, 90 min, no insulin", "result": "marked reduction"}, {"measurement": "IC50", "setting": "human recombinant PTP1B [2]", "result": "12.7 ± 0.3", "unit": "µM"}, {"measurement": "Reversibility of PTP1B inhibition", "setting": "human recombinant PTP1B [3]", "result": "reversible inhibitors"}]}]}
